Biological target: HiBit-KRAS^G12C (Homo sapiens, UniProt P01116, G12C)
Assay: HiBit degradation assay in SW1573 HiBit-KRas^G12C cells
Format: cell-based
Design: expressed in transfected cells; host or cells: SW1573 (clone E6), modified pcDNA3.1 vector, TK promoter
Details: 0.1% DMSO, 24 hours; for DC50: SW1573 HiBit-KRas^G12C, read-out: KRas^G12C-HIBit (SW1573; 0.1% DMSO) DC50*; for Dmax: SW1573, SW1573 HiBit-KRas^G12C, read-out: KRas^G12C-HiBit (SW1573; 0.1% DMSO) Dmax**
Description: Reagents. SW1573 (CRL-2170) and MiaPaCa-2 (CRL-1420) cells were purchased from ATCC. Both cell lines are […] for the G12C mutation in KRAS. SW1573 cells were cultured in DMEM+F12+Glutamax (+Sodium Bicarbonate, +sodium pyruvate, Thermofisher scientific, #10565) supplemented with 10% FBS (Thermofisher scientific, #2060357) and 1% Antibiotic-Antimycotic (Thermofisher scientific, #15240096). MiaPaCa-2 cells were cultured in DMEM+Glutamax media (Thermofisher scientific, #10566) supplemented with 10% FBS (Thermofisher scientific, #2060357) and 1% Antibiotic-Antimycotic (Thermofisher scientific, #15240096). For degradation assays, 384 well plates were purchased from Corning (Corning® CellBIND® 384-well Flat Clear Bottom Black Polystyrene Microplates, Low Flange, #3770). Gambogic acid was purchased from Selleckchem (#S2448). Alamar blue was purchased from Thermofisher scientific (A50101) and used according to manufacturer instructions. The Nano-Glo® HiBit Lytic Detection System and Nano-Glo® HiBit Blotting System were purchased from Promega (#N3050 and #N2410) and used according to manufacturer instructions.
To create the SW1573 HiBit-KRAS^G12C cell line, the nucleotide sequence encoding the 11 amino acid HiBit tag from Promega (Schwinn, M. K. et al. (2018) CRISPR-mediated tagging of endogenous proteins with a luminescent peptide. ACS Chem. Biol. 13(2), 467-474) was appended to the N-terminus of the KRAS^G12C coding sequence. This synthesized DNA was cloned into a modified pcDNA3.1 vector under the control of the thymidine kinase (TK) promoter. This HiBit-KRAS^G12C expressing plasmid was transfected into parental SW1573 cells and colonies were selected using 400 μg/mL zeocin. The resulting clonal lines were screened for expression of HiBit-KRAS^G12C protein using Nano-Glo® HiBit Blotting System. A luminescent band of the correct size for HiBit-KRAS^G12C was detected in several clones. Clone E6 was selected for further studies.
Either SW1573 HiBit-KRas^G12C or MiaPaCa-2 HiBit-KRas^G12C cells were plated at 9000 cells/well in a 384 well plate (Corning #3770). Exemplary heterobifunctional molecules and positive controls were diluted in the appropriate cell media and applied to the plated cells resulting in a final concentration titration of 10 μM to 20 nM in either 0.1% or 0.5% dimethyl sulfoxide (DMSO). Gambogic acid was used as a positive control for cytotoxicity and titrated from 10 μM to 78 nM. All assays were performed in triplicate. Cells were treated with compounds for 24 hours at 37° C. in an incubator containing 5% CO2. Following treatment, alamar blue was used to determine if any compounds led to a loss in cell viability after 24 hours. The 10× alamar blue reagent was added to a final concentration of 1× as recommended by the manufacturer and cells were returned to the incubator for 4 hours. Plates were then allowed to equilibrate to room temperature and fluorescence was measured using a Perkin-Elmer EnVision. After completion of the fluorescence read, the liquid from each well was removed and the cells were washed with PBS. The Nano-Glo® HiBiT detection reagent was prepared according to the manufacturer's instructions and added to each well after the PBS wash was removed. Following incubation at room temperature for 45 minutes, the luminescence was read using the ultra-sensitive luminescence aperture on the Envision instrument.
Fluorescence values from the alamar blue treatment were normalized to the DMSO only control for each compound titration. We hypothesized that compounds that led to a ≥50% loss in cell viability of the KRAS-independent SW1573 HiBit-KRas^G12C cells were likely generally cytotoxic and loss of HiBit-KRAS^G12C signal from these compounds may be due to lower cell number and not specific KRAS^G12C degradation. These points were therefore excluded from the data analysis for degradation. […]

HiBit-KRAS^G12C, sequence (P01116 1-186 isoform P01116-2 G12C limits assumed): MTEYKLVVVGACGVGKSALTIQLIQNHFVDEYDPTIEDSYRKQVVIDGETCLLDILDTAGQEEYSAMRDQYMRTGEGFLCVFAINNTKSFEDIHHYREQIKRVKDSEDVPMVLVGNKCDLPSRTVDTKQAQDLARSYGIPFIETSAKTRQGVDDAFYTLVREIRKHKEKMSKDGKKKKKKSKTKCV

SMILES | DC50 | Dmax
C=CC(=O)N1CCN(c2nc(O[C@H](C)CN3CCC(OCCOCCOCCOc4cc(-c5scnc5C)ccc4CNC(=O)[C@@H]4C[C@@H](O)CN4C(=O)[C@@H](c4cc(C)no4)C(C)C)CC3)nc3c(F)c(-c4cc(O)cc5ccccc45)c(Cl)cc23)CC1 [Compound 70, (2S,4R)-N-{[2-(2-{2-[2-({1-[(2R)-2-{[6-chloro-8-fluoro-7-(3-hydroxynaphthalen-1-yl)-4-[4-(prop-2-enoyl)piperazin-1-yl]quinazolin-2-yl]oxy}propyl]piperidin-4-yl}oxy)ethoxy]ethoxy}ethoxy)-4-(4-methyl-1,3-thiazol-5-yl)phenyl]methyl}-4-hydroxy-1-[(2R)-3-methyl-2-(3-methyl-1,2-oxazol-5-yl)butanoyl]pyrrolidine-2-carboxamide] | > 1000 nM | –
C=CC(=O)N1CCN(c2nc(O[C@H](C)CN3CCC(OCCOCCOCCOCCOc4cc(-c5scnc5C)ccc4CNC(=O)[C@@H]4C[C@@H](O)CN4C(=O)[C@@H](c4cc(C)no4)C(C)C)CC3)nc3c(F)c(-c4cc(O)cc5ccccc45)c(Cl)cc23)CC1 [Compound 76, (2S,4R)-N-({2-[2-(2-{2-[2-({1-[(2R)-2-{[6-chloro-8-fluoro-7-(3-hydroxynaphthalen-1-yl)-4-[4-(prop-2-enoyl)piperazin-1-yl]quinazolin-2-yl]oxy}propyl]piperidin-4-yl}oxy)ethoxy]ethoxy}ethoxy)ethoxy]-4-(4-methyl-1,3-thiazol-5-yl)phenyl}methyl)-4-hydroxy-1-[(2R)-3-methyl-2-(3-methyl-1,2-oxazol-5-yl)butanoyl]pyrrolidine-2-carboxamide] | > 1000 nM | –
C=CC(=O)N1CCN(c2nc(O[C@H](C)CN3CCC(OCCOc4cc(-c5scnc5C)ccc4CNC(=O)[C@@H]4C[C@@H](O)CN4C(=O)[C@@H](c4cc(C)no4)C(C)C)CC3)nc3c(F)c(-c4cc(O)cc5ccccc45)c(Cl)cc23)CC1 [Compound 78, (2S,4R)-N-({2-[2-({1-[(2R)-2-{[6-chloro-8-fluoro-7-(3-hydroxynaphthalen-1-yl)-4-[4-(prop-2-enoyl)piperazin-1-yl]quinazolin-2-yl]oxy}propyl]piperidin-4-yl}oxy)ethoxy]-4-(4-methyl-1,3-thiazol-5-yl)phenyl}methyl)-4-hydroxy-1-[(2R)-3-methyl-2-(3-methyl-1,2-oxazol-5-yl)butanoyl]pyrrolidine-2-carboxamide] | > 1000 nM | –
C=CC(=O)N1CCN(c2nc(O[C@H](C)CN3CCC(CN4CC5(CN(CC(=O)N[C@H](C(=O)N6C[C@H](O)C[C@H]6C(=O)N[C@@H](C)c6ccc(-c7scnc7C)cc6)C(C)(C)C)C5)C4)CC3)nc3c(F)c(-c4cc(O)cc5ccccc45)c(Cl)cc23)CC1 [Compound 35, (2S,4R)-1-[(2S)-2-{2-[6-({1-[(2R)-2-{[6-chloro-8-fluoro-7-(3-hydroxynaphthalen-1-yl)-4-[4-(prop-2-enoyl)piperazin-1-yl]quinazolin-2-yl]oxy}propyl]piperidin-4-yl}methyl)-2,6-diazaspiro[3.3]heptan-2-yl]acetamido}-3,3-dimethylbutanoyl]-4-hydroxy-N-[(1S)-1-[4-(4-methyl-1,3-thiazol-5-yl)phenyl]ethyl]pyrrolidine-2-carboxamide] | > 1000 nM | –
C=CC(=O)N1CCN(c2nc(O[C@H](C)CN3CC(COCC(=O)N[C@H](C(=O)N4C[C@H](O)C[C@H]4C(=O)N[C@@H](C)c4ccc(-c5scnc5C)cc4)C(C)(C)C)C3)nc3c(F)c(-c4cc(O)cc5ccccc45)c(Cl)cc23)CC1 [Compound 42, (2S,4R)-1-[(2S)-2-[2-({1-[(2R)-2-{[6-chloro-8-fluoro-7-(3-hydroxynaphthalen-1-yl)-4-[4-(prop-2-enoyl)piperazin-1-yl]quinazolin-2-yl]oxy}propyl]azetidin-3-yl}methoxy)acetamido]-3,3-dimethylbutanoyl]-4-hydroxy-N-[(1S)-1-[4-(4-methyl-1,3-thiazol-5-yl)phenyl]ethyl]pyrrolidine-2-carboxamide] | > 1000 nM | < 35%
C=CC(=O)N1CCN(c2nc(O[C@H](C)CN3CCC(OCCOCCOCCOCCOc4cc(-c5scnc5C)ccc4CNC(=O)[C@@H]4C[C@@H](O)CN4C(=O)[C@H](c4cc(C)no4)C(C)C)CC3)nc3c(F)c(-c4cc(O)cc5ccccc45)c(Cl)cc23)CC1 [Compound 75, (2S,4R)-N-({2-[2-(2-{2-[2-({1-[(2R)-2-{[6-chloro-8-fluoro-7-(3-hydroxynaphthalen-1-yl)-4-[4-(prop-2-enoyl)piperazin-1-yl]quinazolin-2-yl]oxy}propyl]piperidin-4-yl}oxy)ethoxy]ethoxy}ethoxy)ethoxy]-4-(4-methyl-1,3-thiazol-5-yl)phenyl}methyl)-4-hydroxy-1-[(2S)-3-methyl-2-(3-methyl-1,2-oxazol-5-yl)butanoyl]pyrrolidine-2-carboxamide] | > 1000 nM | < 35%

The remaining lines, values ahead:

DC50 | Dmax | SMILES
> 1000 nM | – | C=CC(=O)N1CCN(c2nc(OCCN3CCC(OCCOc4cc([C@H](C(=O)N5C[C@@H](O)C[C@H]5C(=O)N[C@@H](C)c5ccc(-c6scnc6C)cc5)C(C)C)on4)CC3)nc3c(F)c(-c4cc(O)cc5ccccc45)c(Cl)cc23)C[C@@H]1CC#N [Compound 2, (2S,4S)-1-[(2R)-2-{3-[2-({1-[2-({6-chloro-4-[(3S)-3-(cyanomethyl)-4-(prop-2-enoyl)piperazin-1-yl]-8-fluoro-7-(3-hydroxynaphthalen-1-yl)quinazolin-2-yl}oxy)ethyl]piperidin-4-yl}oxy)ethoxy]-1,2-oxazol-5-yl}-3-methylbutanoyl]-4-hydroxy-N-[(1S)-1-[4-(4-methyl-1,3-thiazol-5-yl)phenyl]ethyl]pyrrolidine-2-carboxamide]
> 1000 nM | – | C=CC(=O)N1CCN(c2nc(OC[C@@H]3C[C@@H](OCCOCCOCCOCCOCCOCCOCCOCCOCCOCCOCC(=O)N[C@H](C(=O)N4C[C@H](O)C[C@H]4C(=O)N[C@@H](C)c4ccc(-c5scnc5C)cc4)C(C)(C)C)CN3C)nc3c2CCN(c2cccc4ccccc24)C3)C[C@@H]1CC#N [Compound 73, (2S,4R)-1-[(2S)-2-(32-{[(3R,5S)-5-[({4-[(3S)-3-(cyanomethyl)-4-(prop-2-enoyl)piperazin-1-yl]-7-(naphthalen-1-yl)-5H,6H,7H,8H-pyrido[3,4-d]pyrimidin-2-yl}oxy)methyl]-1-methylpyrrolidin-3-yl]oxy}-3,6,9,12,15,18,21,24,27,30-decaoxadotriacontanamido)-3,3-dimethylbutanoyl]-4-hydroxy-N-[(1S)-1-[4-(4-methyl-1,3-thiazol-5-yl)phenyl]ethyl]pyrrolidine-2-carboxamide]
> 1000 nM | – | C=CC(=O)N1CCN(c2nc(O[C@H](C)CN3CCC(OCCOCC(=O)N[C@H](C(=O)N4C[C@H](O)C[C@H]4C(=O)N[C@@H](C)c4ccc(-c5scnc5C)cc4)C(C)(C)C)CC3)nc3c2CCN(c2cccc4ccccc24)C3)C[C@@H]1CC#N [Compound 58, (2S,4R)-1-[(2S)-2-{2-[2-({1-[(2R)-2-({4-[(3S)-3-(cyanomethyl)-4-(prop-2-enoyl)piperazin-1-yl]-7-(naphthalen-1-yl)-5H,6H,7H,8H-pyrido[3,4-d]pyrimidin-2-yl}oxy)propyl]piperidin-4-yl}oxy)ethoxy]acetamido}-3,3-dimethylbutanoyl]-4-hydroxy-N-[(1S)-1-[4-(4-methyl-1,3-thiazol-5-yl)phenyl]ethyl]pyrrolidine-2-carboxamide]

From patent publication US20220370416A1, “COMPOUNDS AND METHODS FOR TARGETED DEGRADATION OF KRAS” (Arvinas Operations, Inc., priority 2020, published 2022)
